The results in this text go back to patent publication US8946407B2, “Fructosylated mangiferin and preparation method therefor and use thereof” (priority 2011, dated 2015).

The subject of data set [1] is Human chronic myelogenous leukemia cell strain K562. Description: K562 cell toxicity test (MTT method). Format: cell-based. To be noted: for Average suppression rate (%) / OD value: 48 h; for Average suppression rate (%): K562; for OD value: K562, A490 MTT. As to the method:
Human chronic myelogenous leukemia cell strain K562, purchased from the cell bank of Shanghai Cell Research Institute of Chinese Academy of Sciences; mangiferin, purchased from Nanjing Zelang Medical Science and Technology Co., Ltd.; monofructosyl-β (2,6)-mangiferin is prepared with the method described in this invention, with purity over 99% as determined by high performance liquid chromatography. Drug liquid and its storage: weigh 8.44 mg mangiferin powder and dissolve it in 2 mL DMSO to prepare it into 10 mmol/L mangiferin; weigh 11.68 mg monofructosyl-β (2,6)-mangiferin powder and dissolve it in 2 mL DMSO to prepare it into 10 mmol/L monofructosyl-β (2,6)-mangiferin; they are filtered with a 0.22 μm filter, packed in 1000 μL/doff and stored at −20° C., meanwhile, high concentration DMSO is filtered with a 0.22 μm filter for use as control. The K-562 cells are cultured in RPMI-1640 complete culture medium containing inactivated calf serum at volume fraction of 10%, 100 U penicillin and streptomycin, in an incubating box at 37° C., with 5% CO2 and at saturated humidity. Take K-562 cells in logarithmic growing phase, adjust its concentration to 1×10^5/mL, and inoculate them in a 96-hole culture plate, each hole with 90 μL of suspended cell liquid, the experimental group is treated with mangiferin and monofructosyl-β (2,6)-mangiferin at different end concentration (1, 5, 10, 20, 50, 100, 150 and 200 μmol/L), with 10 μL in each hole, the DMSO solvent control group is added with 20 μL PBS containing the corresponding drug solvent, and the blank group is added with 20 μL PBS. For each drug concentration, 6 repeating holes are provided. The culture plate is put back into the cell culture box, add 20 μL MTT (5 mg/mL) solution after 48 h, and after further incubation of 4 h in the culture box, add triple liquid 100 μL into each hole, put it still overnight to allow full dissolution of crystal. Vibrate it with oscillator for 20 min and determine the light absorption at 490 nm with a fully automatic ELISA instrument, and calculate the average suppression rate, the suppression rate (%)=(control group A490−test group A490)/control group A490), the experiment was repeated three times. Relevant analysis and Student t tests in Microsoft Excel 2003 were used, and data are presented in.

A further data set can be described thus: dissolvability at 25° C. The data set is classed as physicochemical. As to the method: As determined, at 25° C., the dissolvability of monofructosyl-β-(2,6)-mangiferin is 350 g/L, and that of bifructosyl-β-(2,6)-mangiferin is 1200 g/L, respectively 3.5×103 times and 1.2×104 times that of mangiferin (0.1 g/L) under the same condition.

With `O=c1c2cc(O)c(O)cc2oc2cc(O)c([C@@H]3O[C@H](CO)[C@@H](O)[C@H](O)[C@H]3O)c(O)c12` [mangiferin], the “Average suppression rate (%)” value in data set [1] (1 μmol/L) is 7.74%; in data set [1] (5 μmol/L), 8.39%; in data set [1] (10 μmol/L), 10.75%; in data set [1] (20 μmol/L), 3.52%; in data set [1] (50 μmol/L) it was −3.9%; in data set [1] (100 μmol/L) it was −16.08%. The “Average suppression rate (%)” value was −10.61% in data set [1] (150 μmol/L) and −14.56% in data set [1] (200 μmol/L). In addition, the OD value in data set [1] (1 μmol/L) turned out to be 0.952 ± 0.034; in data set [1] (5 μmol/L), 0.945 ± 0.041; in data set [1] (10 μmol/L), 0.921 ± 0.036; in data set [1] (20 μmol/L) it was 0.995 ± 0.086; in data set [1] (50 μmol/L), 1.096 ± 0.143; in data set [1] (100 μmol/L) it was 1.198 ± 0.048. For the same molecule, the OD value was 1.141 ± 0.049 in data set [1] (150 μmol/L) and 1.182 ± 0.175 in data set [1] (200 μmol/L).

bifructosyl-β-(2,6)-mangiferin had a dissolvability in “dissolvability at 25° C.” of 1200 g/L.

On to monofructosyl-β-(2,6)-mangiferin, for which the “Average suppression rate (%)” value in data set [1] (1 μmol/L) is on record as 4.53%; in data set [1] (5 μmol/L), 8.79%; in data set [1] (10 μmol/L), 8.19%; in data set [1] (20 μmol/L), 8.56%; in data set [1] (50 μmol/L) it was 8.87%; in data set [1] (100 μmol/L), 23.19%. In addition, the results for the “Average suppression rate (%)” value in data set [1] (150 μmol/L) and in data set [1] (200 μmol/L) were 36.53% and 41.48%, respectively. The OD value amounted to 0.982 ± 0.039 in data set [1] (1 μmol/L); 0.938 ± 0.102 in data set [1] (5 μmol/L); 0.944 ± 0.053 in data set [1] (10 μmol/L); 0.941 ± 0.040 in data set [1] (20 μmol/L); 0.938 ± 0.041 in data set [1] (50 μmol/L); 0.790 ± 0.098 in data set [1] (100 μmol/L). Moreover, the figures for the OD value in data set [1] (150 μmol/L) and in data set [1] (200 μmol/L) were 0.653 ± 0.026 and 0.602 ± 0.021, respectively. Also, the “effect on K562 cell proliferation (in words)” value in data set [1] (after acting for 48 h, MTT method) was “can markedly suppress the proliferation”. In “dissolvability at 25° C.”, this molecule registered a dissolvability of 350 g/L.
